Values quoted from earlier work as cited in patent US20070298008A1, “Method of bowel cleansing” (Braintree Laboratories, Inc., priority 2002, published 2007).
Like-named read-outs stand apart in the source and are kept apart here.

System: intestines and rectum

## CC(=O)Oc1ccc(C(c2ccc(OC(C)=O)cc2)c2ccccn2)cc1 [Bisacodyl]
enema
  Time to produce a bowel movement: about 20 minutes
suppository
  Time to produce a bowel movement: about an hour
